Measurements as given in patent publication US20240325394A1, “SALT AND CRYSTAL FORM OF NITROGEN-CONTAINING HETEROCYCLIC DERIVATIVE, PREPARATION METHOD THEREFOR AND APPLICATION THEREOF” (SHANGHAI HANSOH BIOMEDICAL CO., LTD., priority 2020, published 2024).
Where two headings read alike, the source gives them in different places.

Columns and labels:
[1] = Plasma stability, mouse plasma; type: in vitro ADME
Procedure, shortened: (§1)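 Compound from a 10 μM working solution in 100 mM phosphate buffer was incubated at 37°C in anticoagulated plasma from each species, with propantheline as positive control. Aliquots taken at 0, 15, 30, 60, 90 and 120 min were quenched in acetonitrile with internal standard. Remaining compound was quantified by LC-MS/MS (positive ESI, MRM).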

[2] = Plasma stability, dog plasma; type: in vitro ADME; conditions: dog plasma, 37° C.
Procedure, shortened: as §1

CYP450 2C9 = target: T1, CYP450 2C9 (Homo sapiens, UniProt P11712); test: CYP enzyme single point inhibition test, human liver microsomes, 2C9; type: in vitro ADME; conditions: single point method
T1 construct: from tissue; host or cells: human liver microsomes
T1 sequence (P11712 whole entry): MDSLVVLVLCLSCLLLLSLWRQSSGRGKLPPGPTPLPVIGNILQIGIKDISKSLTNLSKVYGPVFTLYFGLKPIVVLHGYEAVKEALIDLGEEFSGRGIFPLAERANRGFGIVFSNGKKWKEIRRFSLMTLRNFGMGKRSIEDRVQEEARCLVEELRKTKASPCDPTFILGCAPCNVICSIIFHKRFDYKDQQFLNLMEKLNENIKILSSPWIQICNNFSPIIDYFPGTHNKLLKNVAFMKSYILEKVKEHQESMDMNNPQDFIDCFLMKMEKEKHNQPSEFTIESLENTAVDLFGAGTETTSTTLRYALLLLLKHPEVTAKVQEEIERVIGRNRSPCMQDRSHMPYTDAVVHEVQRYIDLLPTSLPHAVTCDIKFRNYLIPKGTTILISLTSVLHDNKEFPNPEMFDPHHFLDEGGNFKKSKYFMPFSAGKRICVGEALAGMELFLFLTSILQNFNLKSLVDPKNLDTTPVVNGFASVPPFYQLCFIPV
Experimental: (§2) Using human liver microsomal incubation system, the inhibition of CYP450 enzyme subtypes by compounds was rapidly predicted by single point method.
(§3) 2.5 mM NADPH: 100 mM phosphate buffer was added to 4.165 mg of NADPH (reduced nicotinamide adenine dinucleotide phosphate) to 2 mL. 0.25 mg/mL microsome: 4 mL of 100 mM phosphate buffer was added to 50 μL of 20 mg/mL microsome and mixed well.
(§4) The embodiment compound to be tested was weighed and diluted to 10 mM with DMSO and then diluted to 100 µM with 100 mM phosphate buffer.
(§5) • 1. In a 96-well plate, 40 μL of liver microsomes, 10 μL of substrate, 10 μL of compound to be tested were pre-incubated for 3 min. • 2. 40 μL of NADPH was added. • 3. 300 μL of acetonitrile termination solution containing internal standard was added at 20 min. • 4. Centrifugal injection.

CYP450 2C19 = target: T2, CYP450 2C19 (Homo sapiens, UniProt P33261); test: CYP enzyme single point inhibition test, human liver microsomes, 2C19; type: in vitro ADME; conditions: single point method
T2 construct: from tissue; host or cells: human liver microsomes
T2 sequence (P33261 whole entry): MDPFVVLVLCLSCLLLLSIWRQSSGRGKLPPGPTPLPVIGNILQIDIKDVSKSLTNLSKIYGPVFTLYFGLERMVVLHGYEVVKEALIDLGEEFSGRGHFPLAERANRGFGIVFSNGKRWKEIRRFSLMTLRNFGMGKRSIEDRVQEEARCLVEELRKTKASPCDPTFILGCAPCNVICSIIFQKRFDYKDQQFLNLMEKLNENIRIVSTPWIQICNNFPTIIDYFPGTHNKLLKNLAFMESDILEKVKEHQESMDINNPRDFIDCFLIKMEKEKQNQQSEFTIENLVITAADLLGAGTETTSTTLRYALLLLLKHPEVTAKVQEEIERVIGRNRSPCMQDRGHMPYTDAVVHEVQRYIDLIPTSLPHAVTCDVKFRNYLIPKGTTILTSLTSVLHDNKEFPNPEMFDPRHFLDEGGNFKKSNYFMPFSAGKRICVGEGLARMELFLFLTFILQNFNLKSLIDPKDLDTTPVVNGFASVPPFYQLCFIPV
Experimental: as §2, §3, §4, §5

CYP450 2D6 = target: T3, CYP450 2D6 (Homo sapiens, UniProt P10635); test: CYP enzyme single point inhibition test, human liver microsomes, 2D6; type: in vitro ADME; conditions: single point method
T3 construct: from tissue; host or cells: human liver microsomes
T3 sequence (P10635 whole entry): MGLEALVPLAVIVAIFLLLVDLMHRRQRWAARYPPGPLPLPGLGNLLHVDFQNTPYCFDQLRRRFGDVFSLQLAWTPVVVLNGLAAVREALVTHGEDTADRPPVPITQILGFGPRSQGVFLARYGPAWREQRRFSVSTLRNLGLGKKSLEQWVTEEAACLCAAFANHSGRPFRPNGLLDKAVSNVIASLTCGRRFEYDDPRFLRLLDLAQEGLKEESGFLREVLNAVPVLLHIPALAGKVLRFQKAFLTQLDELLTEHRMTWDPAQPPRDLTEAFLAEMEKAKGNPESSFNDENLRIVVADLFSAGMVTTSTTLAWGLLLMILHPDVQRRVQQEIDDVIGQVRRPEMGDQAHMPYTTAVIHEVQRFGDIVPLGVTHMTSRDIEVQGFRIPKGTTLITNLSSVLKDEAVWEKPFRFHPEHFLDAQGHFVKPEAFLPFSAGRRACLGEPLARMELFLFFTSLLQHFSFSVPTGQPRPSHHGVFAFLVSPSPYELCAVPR
Experimental: as §2, §3, §4, §5

CYP450 3A4 = target: T4, CYP450 3A4 (Homo sapiens, UniProt P08684); test: CYP enzyme single point inhibition test, human liver microsomes, 3A4 (3A4-M, 3A4-T); type: in vitro ADME; conditions: single point method
T4 construct: from tissue; host or cells: human liver microsomes
T4 sequence (P08684 whole entry): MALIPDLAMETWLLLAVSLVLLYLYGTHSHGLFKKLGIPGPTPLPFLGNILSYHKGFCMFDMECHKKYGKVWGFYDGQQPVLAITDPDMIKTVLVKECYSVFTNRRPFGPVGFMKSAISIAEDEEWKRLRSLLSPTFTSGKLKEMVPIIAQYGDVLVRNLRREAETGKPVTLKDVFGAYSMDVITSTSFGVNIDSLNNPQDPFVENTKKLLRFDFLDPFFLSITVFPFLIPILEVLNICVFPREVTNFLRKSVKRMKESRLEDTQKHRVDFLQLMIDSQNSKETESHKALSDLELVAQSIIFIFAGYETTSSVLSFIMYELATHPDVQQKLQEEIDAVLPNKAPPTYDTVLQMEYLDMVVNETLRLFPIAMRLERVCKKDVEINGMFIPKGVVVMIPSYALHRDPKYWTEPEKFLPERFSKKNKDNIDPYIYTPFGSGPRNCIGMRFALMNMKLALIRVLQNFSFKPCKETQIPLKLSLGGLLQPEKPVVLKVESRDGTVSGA
Experimental: as §2, §3, §4, §5

[3] = system: NCI-H358 cells (KRAS G12C mutant); test: Inhibition of NCI-H358 cell proliferation (CellTiter-Glo, 72 h); type: cell-based, human
Experimental: (§6) When NCI-H358 or Mia PaCa-2 cells were cultured to the appropriate fusion level, the NCI-H358 or Mia PaCa-2 cells were collected, and the cells were adjusted to the appropriate cell concentration using a complete medium, and the cell suspension was spread in a 96-well plate, 90 μL per well, and placed in a 37° C., 5% CO2 incubator overnight; and compound solutions of different concentrations were prepared using DMSO and culture medium; and a solvent control was set, the compound solution was added to a 96-well plate, 10 μL per well, at 37° C. in a 5% CO2 incubator for 72 hours; CellTiter-Glo solution was added thereto and the mixture was mixed well by shaking, incubated for 10 min in the dark, and read by BioTek Synergy H1 microplate reader.
(§7) The luminescence signal values were used to calculate the inhibition rate, the concentration and the inhibition rate were fitted to a nonlinear regression curve using Graphpad Prism software, then the IC50 value was obtained.

[4] = system: Mia PaCa-2 cells (KRAS G12C mutant); test: Inhibition of Mia PaCa-2 cell proliferation (CellTiter-Glo, 72 h); type: cell-based, human
Experimental: as §6, §7

plasma protein [5] = test: Plasma protein binding rate test, mouse plasma; type: in vitro ADME; conditions: 5 μM, 37° C., 6 hours
Experimental: (§8) The embodiment compound was prepared into a 1 mM solution A with DMSO.
(§9) Solution A was added to the plasma solution and prepared into a 5 μM solution B.
(§10) • 1) 200 μL of solution B was added into the membrane. • 2) 350 μL of PBS was added to the outside of the membrane. • 3) Incubating in a 37° C. water bath for 6 hours. • 4) The samples were processed for dilution and detected by mass spectrometry.
(§11) • instrument: Shimadzu LC-20 AD; • chromatographic column: phenomenex Gemiu® C18 (50*4.6 mm, 5 UM particle size); • mobile phase: A: Acetonitrile, B: 0.1% formic acid solution 0-0.5 min: 5% A→90% A, 2.0-2.1 min: 90% A→5% A; flow rate: 0.8 mL/min; running time: 5.0 min; injection volume: 5 μL.
(§12) • instrument: API4000 Liquid Chromatography-Mass Spectrometry, AB, USA; • the ion source was electrospray ionization source (ESI); • the temperature of dry gas (N2) was 500° C.; • electrospray voltage was 5500V; • the detection method was positive ion detection; • the scanning mode was selective response monitoring (MRM); the scanning time was 0.1 s.

plasma protein [6] = test: Plasma protein binding rate test, dog plasma; type: in vitro ADME; conditions: 5 μM, 37° C., 6 hours
Experimental: as §8, §9, §10, §11, §12

[7] = 3A4-M, read-out: IC50 (μM) 3A4-M
[8] = 3A4-T, read-out: IC50 (μM) 3A4-T

Row | Compound | Residual rate (%) 0 min [2] [%] | Residual rate (%) 15 min [2] [%] | Residual rate (%) 30 min [2] [%] | Residual rate (%) 60 min [2] [%] | Residual rate (%) 120 min [2] [%] | IC50 (CYP450 2C9) [µM] | IC50 (CYP450 2C19) [µM] | IC50 (CYP450 2D6) [µM] | IC50 (CYP450 3A4; [7]) [µM] | IC50 (CYP450 3A4; [8]) [µM] | also measured
1 | C=CC(=O)N1C[C@H](C)N(c2nc(=O)n(-c3c(SC)ccnc3C(C)C)c3nc(-c4c(N)ccc(Cl)c4F)c(Cl)cc23)C[C@H]1C (atropisomer, axis not shown) [Embodiment 13-1, P-4-((2S,5R)-4-Acryloyl-2,5-dimethylpiperazin-1-yl)-7-(6-amino-3-chloro-2-fluorophenyl)-6-chloro-1-(2-isopropyl-4-(methylthio)pyridin-3-yl)pyrido[2,3-d]pyrimidin-2(1H)-one] | 100.00 | 97.71 | 96.32 | 94.86 | 92.49 | 58.8 | 28.8 | 21.2 | 4.7 | 9.1 | Residual rate (%) 0 min ([1]; mouse, 0.5 μM): 100.00%; Residual rate (%) 15 min ([1]; mouse, 0.5 μM): 100.58%; Residual rate (%) 30 min ([1]; mouse, 0.5 μM): 99.52%; Residual rate (%) 60 min ([1]; mouse, 0.5 μM): 99.64%; Residual rate (%) 120 min ([1]; mouse, 0.5 μM): 92.32%
2 | P-4-((2S,5R)-4-acryloyl-2,5-dimethylpiperazin-1-yl)-6-fluoro-7-(2-fluoro-6-hydroxyphenyl)-1-(2-isopropyl-4-(methylthio)pyridin-3-yl)pyrido[2,3-d]pyrimidin-2(1H)-one [Embodiment 2-1] | 100.00 | 97.87 | 96.23 | 92.42 | 85.48 | 84.6 | > 100 | > 100 | 19 | > 100 | IC50 [3]: 0.035 µM; IC50 [4]: 0.029 µM; Residual rate (%) 0 min ([1]; mouse plasma, 37° C.): 100.00%; Residual rate (%) 15 min ([1]; mouse plasma, 37° C.): 102.67%; Residual rate (%) 30 min ([1]; mouse plasma, 37° C.): 98.51%; Residual rate (%) 60 min ([1]; mouse plasma, 37° C.): 95.49%; Residual rate (%) 120 min ([1]; mouse plasma, 37° C.): 84.58%; Plasma protein binding rate, Mouse (plasma protein [5]): 88.4; Plasma protein binding rate, Dog (plasma protein [6]): 82.6
